Columns and labels:
Settings in all cases: banded MIC grade
Aspergillus fumigatus = test: Minimum inhibitory concentration, YAG medium; type: cell-based
In short: (§1)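 Broth microdilution in YAG medium; inoculum 1-2×10^4 cfu/mL; compound 50-0.05 mg/L in doubling steps, from DMSO stock. 24 h, 35° C. Read OD 485 nm; MIC = lowest conc. inhibiting growth >70% vs no-drug control, in mg/L.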

Aspergillus niger = test: Minimum inhibitory concentration, YAG medium; type: cell-based
In short: (§2)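 Growth inhibition was read as absorbance at 485 nm after spores of Aspergillus spp. were exposed for 24 hrs at 35° C to doubling dilutions of the compound. Dilutions were made in water starting from a 5 mg/mL DMSO stock, and MIC values were expressed in mg/L.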

Aspergillus flavus = test: Minimum inhibitory concentration, YAG medium; type: cell-based
In short: as §2

Aspergillus terreus = test: Minimum inhibitory concentration, YAG medium; type: cell-based
In short: as §2

C. tropicalis = test: Minimum inhibitory concentration, RPMI medium; type: cell-based
In short: (§3)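 Growth inhibition was judged from optical density at 485 nm per well after 24-48 hrs at 35° C. Test compound came from a 5 mg/mL DMSO stock, serially doubled in water before testing in RPMI 1640.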

C. parapsilosis = test: Minimum inhibitory concentration, RPMI medium; type: cell-based
In short: as §3

C. albicans = test: Minimum inhibitory concentration, RPMI medium; type: cell-based
In short: as §3

A. terreus 49 = test: Minimum inhibitory concentration, YAG medium; type: cell-based, Aspergillus terreus
In short: as §2

A. fumigatus 210 = test: Minimum inhibitory concentration, YAG medium; type: cell-based, Aspergillus fumigatus
In short: as §1

| SMILES | MIC grade, A. FUMIGATUS, YAG media (Aspergillus fumigatus) | MIC grade, A. NIGER, YAG media (Aspergillus niger) | MIC grade, A. FLAVUS, YAG media (Aspergillus flavus) | MIC grade, A. TERREUS, YAG media (Aspergillus terreus) | MIC grade, C. TROPICALIS, RPMI media (C. tropicalis) | MIC grade, C. PARAPSILOSIS, RPMI media (C. parapsilosis) | MIC grade, C. ALBICANS, RPMI media (C. albicans) | MIC grade, A. TERREUS 49, YAG media (A. terreus 49) | MIC grade, A. FUMIGATUS 210, YAG media (A. fumigatus 210) |
| --- | --- | --- | --- | --- | --- | --- | --- | --- | --- |
| NC1=NN=C(CCOC2CCCCC2)CS1 | 2 (2: 1-5 mg/L) | 2 (2: 1-5 mg/L) | 2 (2: 1-5 mg/L) | 2 (2: 1-5 mg/L) | 1 (1: ≥20 mg/L) | 2 (2: 5-20 mg/L) | 1 (1: ≥20 mg/L) | 2 (2: 1-5 mg/L) | 1 (1: ≥5 mg/L) |
| NC1=NN=C(CCOCc2ccccc2)CS1 | 3 (3: 0.2-1 mg/L) | 3 (3: 0.2-1 mg/L) | 3 (3: 0.2-1 mg/L) | 3 (3: 0.2-1 mg/L) | 1 (1: ≥20 mg/L) | 3 (3: 1-5 mg/L) | 1 (1: ≥20 mg/L) | 3 (3: 0.2-1 mg/L) | 2 (2: 1-5 mg/L) |
| CCCCOCCC1=NN=C(N)SC1 | 4 (4: <0.2 mg/L) | 4 (4: <0.2 mg/L) | 3 (3: 0.2-1 mg/L) | 4 (4: <0.2 mg/L) | 2 (2: 5-20 mg/L) | 4 (4: <1 mg/L) | 1 (1: ≥20 mg/L) | 4 (4: <0.2 mg/L) | 4 (4: <0.2 mg/L) |
| CC(C)OCCC1=NN=C(N)SC1 | 4 (4: <0.2 mg/L) | 1 (1: ≥5 mg/L) | 1 (1: ≥5 mg/L) | 2 (2: 1-5 mg/L) | 1 (1: ≥20 mg/L) | 3 (3: 1-5 mg/L) | 1 (1: ≥20 mg/L) | 2 (2: 1-5 mg/L) | 1 (1: ≥5 mg/L) |
| COCCCC1=NN=C(N)SC1 | 4 (4: <0.2 mg/L) | 4 (4: <0.2 mg/L) | 4 (4: <0.2 mg/L) | 3 (3: 0.2-1 mg/L) | 2 (2: 5-20 mg/L) | 3 (3: 1-5 mg/L) | 3 (3: 1-5 mg/L) | 4 (4: <0.2 mg/L) | 4 (4: <0.2 mg/L) |
| NC1=NN=C(c2ccc(Cl)c(Cl)c2)CS1 | 1 (1: ≥5 mg/L) | 2 (2: 1-5 mg/L) | 1 (1: ≥5 mg/L) | 1 (1: ≥5 mg/L) | 1 (1: ≥20 mg/L) | 1 (1: ≥20 mg/L) | 1 (1: ≥20 mg/L) | 1 (1: ≥5 mg/L) | 1 (1: ≥5 mg/L) |
| Cc1cc(C)cc(C2=NN=C(N)SC2)c1 | 1 (1: ≥5 mg/L) | 2 (2: 1-5 mg/L) | 1 (1: ≥5 mg/L) | 1 (1: ≥5 mg/L) | 1 (1: ≥20 mg/L) | 1 (1: ≥20 mg/L) | 1 (1: ≥20 mg/L) | 1 (1: ≥5 mg/L) | 2 (2: 1-5 mg/L) |
| NC1=NN=C(c2ccc(C3CCCCC3)cc2)CS1 | 1 (1: ≥5 mg/L) | 1 (1: ≥5 mg/L) | 1 (1: ≥5 mg/L) | 1 (1: ≥5 mg/L) | 1 (1: ≥20 mg/L) | 1 (1: ≥20 mg/L) | 1 (1: ≥20 mg/L) | 1 (1: ≥5 mg/L) | 1 (1: ≥5 mg/L) |
| CC(C)c1ccc(C2=NN=C(N)SC2)cc1 | 1 (1: ≥5 mg/L) | 1 (1: ≥5 mg/L) | 1 (1: ≥5 mg/L) | 2 (2: 1-5 mg/L) | 1 (1: ≥20 mg/L) | 1 (1: ≥20 mg/L) | 1 (1: ≥20 mg/L) | 2 (2: 1-5 mg/L) | 1 (1: ≥5 mg/L) |
| NC1=NN=C(CCCCc2ccccc2)CS1 | 4 (4: <0.2 mg/L) | 4 (4: <0.2 mg/L) | 4 (4: <0.2 mg/L) | 4 (4: <0.2 mg/L) | 2 (2: 5-20 mg/L) | 4 (4: <1 mg/L) | 2 (2: 5-20 mg/L) | 4 (4: <0.2 mg/L) | 4 (4: <0.2 mg/L) |
| CCCc1ccc(C2=NN=C(N)SC2)cc1 | 3 (3: 0.2-1 mg/L) | 2 (2: 1-5 mg/L) | 2 (2: 1-5 mg/L) | 3 (3: 0.2-1 mg/L) | 1 (1: ≥20 mg/L) | 1 (1: ≥20 mg/L) | 1 (1: ≥20 mg/L) | 3 (3: 0.2-1 mg/L) | 3 (3: 0.2-1 mg/L) |
| COCCCCCC1=NN=C(N)SC1 | 4 (4: <0.2 mg/L) | 4 (4: <0.2 mg/L) | 4 (4: <0.2 mg/L) | 4 (4: <0.2 mg/L) | 3 (3: 1-5 mg/L) | 4 (4: <1 mg/L) | 4 (4: <1 mg/L) | 4 (4: <0.2 mg/L) | 4 (4: <0.2 mg/L) |
| NC1=NN=C(CCCCCOc2ccccc2)CS1 | 4 (4: <0.2 mg/L) | 4 (4: <0.2 mg/L) | 4 (4: <0.2 mg/L) | 4 (4: <0.2 mg/L) | 4 (4: <1 mg/L) | 4 (4: <1 mg/L) | 4 (4: <1 mg/L) | 4 (4: <0.2 mg/L) | 4 (4: <0.2 mg/L) |
| NC1=NN=C2c3ccccc3CCC2S1 (stereo not drawn) | 2 (2: 1-5 mg/L) | 1 (1: ≥5 mg/L) | 1 (1: ≥5 mg/L) | 1 (1: ≥5 mg/L) | 1 (1: ≥20 mg/L) | 1 (1: ≥20 mg/L) | 1 (1: ≥20 mg/L) | 2 (2: 1-5 mg/L) | 1 (1: ≥5 mg/L) |
| NC1=NNC2=C(CCCC2)S1 | 2 (2: 1-5 mg/L) | 2 (2: 1-5 mg/L) | 1 (1: ≥5 mg/L) | 2 (2: 1-5 mg/L) | 1 (1: ≥20 mg/L) | 1 (1: ≥20 mg/L) | 1 (1: ≥20 mg/L) | 2 (2: 1-5 mg/L) | 3 (3: 0.2-1 mg/L) |
| CCCCOC1CCC2=NN=C(N)SC2C1 (stereo not drawn) | 1 (1: ≥5 mg/L) | 2 (2: 1-5 mg/L) | 2 (2: 1-5 mg/L) | 2 (2: 1-5 mg/L) | 1 (1: ≥20 mg/L) | 1 (1: ≥20 mg/L) | 1 (1: ≥20 mg/L) | 2 (2: 1-5 mg/L) | 3 (3: 0.2-1 mg/L) |
| CCCCOC(=O)CC1=NN=C(N)SC1 | 2 (2: 1-5 mg/L) | 3 (3: 0.2-1 mg/L) | 2 (2: 1-5 mg/L) | 2 (2: 1-5 mg/L) | 1 (1: ≥20 mg/L) | 3 (3: 1-5 mg/L) | 1 (1: ≥20 mg/L) | 3 (3: 0.2-1 mg/L) | 3 (3: 0.2-1 mg/L) |
| CCOC(=O)c1cccc(C2=NN=C(N)SC2)c1 | 1 (1: ≥5 mg/L) | 1 (1: ≥5 mg/L) | 1 (1: ≥5 mg/L) | 1 (1: ≥5 mg/L) | 1 (1: ≥20 mg/L) | 1 (1: ≥20 mg/L) | 1 (1: ≥20 mg/L) | 1 (1: ≥5 mg/L) | 1 (1: ≥5 mg/L) |
| CCOC(=O)c1ccc(C2=CSC(N)=NN2)cc1 | 4 (4: <0.2 mg/L) | 4 (4: <0.2 mg/L) | 4 (4: <0.2 mg/L) | 4 (4: <0.2 mg/L) | 2 (2: 5-20 mg/L) | 4 (4: <1 mg/L) | 3 (3: 1-5 mg/L) | 3 (3: 0.2-1 mg/L) | 4 (4: <0.2 mg/L) |

Source: patent US20180201592A1, “2-AMINO-1,3,4-THIADIAZINE AND 2-AMINO-1,3,4-OXADIAZINE BASED ANTIFUNGAL AGENTS” (F2G Limited, priority 2015, published 2018)
